Measured values taken from paper PMC8279414, “Discovery and Synthesis of a Pyrimidine-Based Aurora Kinase Inhibitor to Reduce Levels of MYC Oncoproteins” (Journal of Medicinal Chemistry, 2021).

Assays:
cMYC in NCI-H82 = assay: Western blot analysis of cMYC protein level in NCI-H82 cells; type: cell-based; settings: 24 h; for effect on cMYC protein level in NCI-H82: various concentrations; for NCI-H82 cMYC, relative protein level: 1.0 μM of compound, mean ± SD, triplicate
Method: (§1) Cancer cells were treated with each of the compounds at different compound concentrations. […] Each lysate was separated by sodium dodecyl sulfate polyacrylamide gel electrophoresis (SDS-PAGE), transferred to polyvinylidene fluoride (PVDF, Millipore, USA) membrane, and blotted with antibodies. […] After the blotting (0.2% casein, 1% BSA, or 5% nonfat milk), membranes were washed with blotting buffer (0.2% casein in 1× PBS or 1× TBST), and corresponding alkaline phosphatase (AP)- or horseradish peroxidase (HRP)-conjugated secondary antibodies (Sigma-Aldrich) were added. The blots were developed by chemiluminescence (PerkinElmer, USA).

[1] = target: T1, human Aurora A (amino acids 123–401) (Homo sapiens, UniProt O14965); assay: In vitro inhibition of Aurora A kinase activity (Kinase-Glo Plus Luminescent Kinase assay, ATP consumption); type: biochemical; settings: for IC50: mean of 2–3 independent determinations ± SD, >100 = inhibition < 50% at 100 nM
T1 construct: N-terminal truncated human Aurora A (amino acids 123–401); GST; made in house; host or cells: Sf9 insect cells
T1 sequence (O14965 123-401): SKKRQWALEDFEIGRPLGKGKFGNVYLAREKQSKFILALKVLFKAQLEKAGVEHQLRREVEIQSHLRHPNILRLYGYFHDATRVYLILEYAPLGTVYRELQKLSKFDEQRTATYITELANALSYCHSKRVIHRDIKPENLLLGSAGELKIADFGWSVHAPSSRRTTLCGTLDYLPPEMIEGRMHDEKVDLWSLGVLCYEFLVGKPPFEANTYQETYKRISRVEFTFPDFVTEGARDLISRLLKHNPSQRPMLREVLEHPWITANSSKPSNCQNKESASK
Method: The inhibitory potency of the newly synthesized small molecules against Aurora A was first measured in ATP consumption assays using purified Aurora A protein.
The efficacy of the compounds as inhibitors of Aurora A kinase was assessed in vitro using the Kinase-Glo Plus Luminescent Kinase assay (Promega, USA), as described previously.[45] […] The resulting mixture was incubated at 25 °C for 20 min. A 70 μL aliquot of the mixture was transferred to a black microtiter plate.

MYCN in SK-N-BE(2) = assay: Western blot analysis of MYCN protein level in SK-N-BE(2) cells; type: cell-based; settings: 1.0 μM of compound, 24 h, mean ± SD, triplicate
Method: as §1

Row | IC50 [1] [nM] | reduction of Aurora A inhibitory potency versus 13 [1] | Compound | effect on cMYC protein level in NCI-H82 (cMYC in NCI-H82) | NCI-H82 cMYC, relative protein level (cMYC in NCI-H82) | SK-N-BE(2) MYCN, relative protein level (MYCN in SK-N-BE(2))
1 | – | – | CCN(CCCOc1ccc2c(Nc3cc(CC(=O)Nc4cccc(F)c4)[nH]n3)ncnc2c1)CCOP(=O)(O)O [AZD1152, reference compound] | limited effect | – | –
2 | – | – | CCN1CCN(C(=O)Cc2ccc(Nc3ncc(F)c(Nc4ccc(C(=O)Nc5ccccc5Cl)cc4)n3)cc2)CC1 [Aurora A inhibitor I, reference compound] | limited effect | – | –
3 | 24.1 ± 7.9 | – | CCN1CCN(c2cc(Nc3cc(C)[nH]n3)nc(N[C@H]3CCN(C(=O)c4cccc(Cl)c4F)C3)n2)CC1 [Compound 1, (S)-(3-Chloro-2-fluorophenyl) (3-((4-(4-ethylpiperazin-1-yl)-6-((5-methyl-1H-pyrazol-3-yl)amino)pyrimidin-2-yl)amino)pyrrolidin-1-yl)methanone] | – | 0.781 ± 0.015 | –
4 | 25.7 ± 4.9 | – | Cc1cc(Nc2cc(N3CCN(C)CC3)nc(N[C@H]3CCN(C(=O)c4cccc(Cl)c4F)C3)n2)n[nH]1 [Compound 2, (S)-(3-Chloro-2-fluorophenyl) (3-((4-((5-methyl-1H-pyrazol-3-yl)amino)-6-(4-methylpiperazin-1-yl)pyrimidin-2-yl)amino)pyrrolidin-1-yl)methanone] | – | – | –
5 | 29.8 ± 2.5 | – | Cc1cc(Nc2cc(N3CC(N(C)C)C3)nc(N[C@H]3CCN(C(=O)c4cccc(Cl)c4F)C3)n2)n[nH]1 [Compound 3, (S)-(3-Chloro-2-fluorophenyl) (3-((4-(3-(dimethylamino)azetidin-1-yl)-6-((5-methyl-1H-pyrazol-3-yl)amino)pyrimidin-2-yl)amino)pyrrolidin-1-yl)methanone] | – | – | –
6 | 29.8 ± 0.7 | – | Cc1cc(Nc2cc(N3CC[C@H](N(C)C)C3)nc(N[C@H]3CCN(C(=O)c4cccc(Cl)c4F)C3)n2)n[nH]1 [Compound 4, (3-Chloro-2-fluorophenyl) ((S)-3-((4-((S)-3-(dimethylamino)pyrrolidin-1-yl)-6-((5-methyl-1H-pyrazol-3-yl)amino)pyrimidin-2-yl)amino)pyrrolidin-1-yl)methanone] | – | – | –
7 | 40.8 ± 2.8 | – | Cc1cc(Nc2cc(N(C)CCN(C)C)nc(N[C@H]3CCN(C(=O)c4cccc(Cl)c4F)C3)n2)n[nH]1 [Compound 5, (S)-(3-Chloro-2-fluorophenyl) (3-((4-((2-(dimethylamino)ethyl) (methyl)amino)-6-((5-methyl-1H-pyrazol-3-yl)amino)pyrimidin-2-yl)amino)pyrrolidin-1-yl)methanone] | – | – | –
8 | 29 ± 6.7 | – | CCN1CCN(c2cc(Nc3cc(C)[nH]n3)nc(N[C@H]3CCN(C(=O)c4ccccc4)C3)n2)CC1 [Compound 6, (S)-(3-((4-(4-Ethylpiperazin-1-yl)-6-((5-methyl-1H-pyrazol-3-yl)amino)pyrimidin-2-yl)amino)pyrrolidin-1-yl) (phenyl)methanone] | – | – | –
9 | 42.9 ± 2.6 | – | CCN1CCN(c2cc(Nc3cc(C)[nH]n3)nc(N[C@H]3CCN(C(=O)c4ccc(Cl)cc4)C3)n2)CC1 [Compound 7, (S)-(4-Chlorophenyl) (3-((4-(4-ethylpiperazin-1-yl)-6-((5-methyl-1H-pyrazol-3-yl)amino)pyrimidin-2-yl)amino)pyrrolidin-1-yl)methanone] | – | 0.887 ± 0.050 | 0.889 ± 0.067
10 | 48.2 ± 9.7 | – | CCN1CCN(c2cc(Nc3cc(C)[nH]n3)nc(N[C@H]3CCN(C(=O)c4ccc(Cl)cc4Cl)C3)n2)CC1 [Compound 8, (S)-(2,4-Dichlorophenyl) (3-((4-(4-ethylpiperazin-1-yl)-6-((5-methyl-1H-pyrazol-3-yl)amino)pyrimidin-2-yl)amino)pyrrolidin-1-yl)methanone] | – | 1.175 ± 0.124 | 1.000 ± 0.035
11 | 64.9 ± 8.5 | – | CCN1CCN(c2cc(Nc3cc(C)[nH]n3)nc(N[C@H]3CCN(C(=O)c4ccc(Cl)cc4C)C3)n2)CC1 [Compound 9, (S)-(4-Chloro-2-methylphenyl) (3-((4-(4-ethylpiperazin-1-yl)-6-((5-methyl-1H-pyrazol-3-yl)amino)pyrimidin-2-yl)amino)pyrrolidin-1-yl)methanone] | – | 0.984 ± 0.052 | 1.057 ± 0.312
12 | 52.2 ± 8.1 | – | CCN1CCN(c2cc(Nc3cc(C)[nH]n3)nc(N[C@H]3CCN(C(=O)c4ccc(Cl)c(F)c4)C3)n2)CC1 [Compound 10, (S)-(4-Chloro-3-fluorophenyl) (3-((4-(4-ethylpiperazin-1-yl)-6-((5-methyl-1H-pyrazol-3-yl)amino)pyrimidin-2-yl)amino)pyrrolidin-1-yl)methanone] | – | 0.715 ± 0.048 | 0.578 ± 0.135
13 | 58.1 ± 7.4 | – | CCN1CCN(c2cc(Nc3cc(C)[nH]n3)nc(N[C@H]3CCN(C(=O)c4ccc(Cl)c(C)c4)C3)n2)CC1 [Compound 11, (S)-(4-Chloro-3-methylphenyl) (3-((4-(4-ethylpiperazin-1-yl)-6-((5-methyl-1H-pyrazol-3-yl)amino)pyrimidin-2-yl)amino)pyrrolidin-1-yl)methanone] | – | 1.050 ± 0.060 | 1.030 ± 0.256
14 | 45.8 ± 1.4 | – | CCN1CCN(c2cc(Nc3cc(C)[nH]n3)nc(N[C@H]3CCN(C(=O)c4cc(Cl)ccc4F)C3)n2)CC1 [Compound 12, (S)-(5-Chloro-2-fluorophenyl) (3-((4-(4-ethylpiperazin-1-yl)-6-((5-methyl-1H-pyrazol-3-yl)amino)pyrimidin-2-yl)amino)pyrrolidin-1-yl)methanone] | – | 0.559 ± 0.119 | 0.734 ± 0.104
15 | > 100 | – | CCN1CCN(c2cc(Nc3cc(C)[nH]n3)nc(N[C@H]3CCN(C(=O)c4ccc(C(F)(F)F)cc4F)C3)n2)CC1 [Compound 14, (S)-(3-((4-(4-Ethylpiperazin-1-yl)-6-((5-methyl-1H-pyrazol-3-yl)amino)pyrimidin-2-yl)amino)pyrrolidin-1-yl) (2-fluoro-4-(trifluoromethyl)phenyl)methanone] | – | – | –
16 | 56.7 ± 3.9 | – | CCN1CCN(c2cc(Nc3cc(C)[nH]n3)nc(N[C@H]3CCN(C(=O)c4c(F)cc(Cl)cc4F)C3)n2)CC1 [Compound 15, (S)-(4-Chloro-2,6-difluorophenyl) (3-((4-(4-ethylpiperazin-1-yl)-6-((5-methyl-1H-pyrazol-3-yl)amino)pyrimidin-2-yl)amino)pyrrolidin-1-yl)methanone] | – | 1.153 ± 0.158 | 0.757 ± 0.121
17 | 50.9 ± 2.3 | – | CCN1CCN(c2cc(Nc3cc(C)[nH]n3)nc(N[C@H]3CCN(C(=O)c4cc(F)c(Cl)cc4F)C3)n2)CC1 [Compound 16, (S)-(4-Chloro-2,5-difluorophenyl) (3-((4-(4-ethylpiperazin-1-yl)-6-((5-methyl-1H-pyrazol-3-yl)amino)pyrimidin-2-yl)amino)pyrrolidin-1-yl)methanone] | – | 0.834 ± 0.121 | 0.792 ± 0.170
18 | > 100 | – | CCN1CCN(c2cc(Nc3cc(C)[nH]n3)nc(N[C@H]3CCN(C(=O)c4cc(F)c(Cl)c(F)c4)C3)n2)CC1 [Compound 18, (S)-(4-Chloro-3,5-difluorophenyl) (3-((4-(4-ethylpiperazin-1-yl)-6-((5-methyl-1H-pyrazol-3-yl)amino)pyrimidin-2-yl)amino)pyrrolidin-1-yl)methanone] | – | – | –
19 | > 100 | – | CCN1CCN(c2cc(Nc3cc(C)[nH]n3)nc(N[C@H]3CCN(C(=O)c4cc(F)c(F)cc4F)C3)n2)CC1 [Compound 19, (S)-(3-((4-(4-Ethylpiperazin-1-yl)-6-((5-methyl-1H-pyrazol-3-yl)amino)pyrimidin-2-yl)amino)pyrrolidin-1-yl) (2,4,5-trifluorophenyl)methanone] | – | – | –
20 | > 100 | more than 2.5 fold | CCN1CCN(c2cc(Nc3cc(C)[nH]n3)nc(N[C@H]3CCN(C(=O)c4ccc(Cl)nc4F)C3)n2)CC1 [Compound 20, (S)-(6-Chloro-2-fluoropyridin-3-yl) (3-((4-(4-ethylpiperazin-1-yl)-6-((5-methyl-1H-pyrazol-3-yl)amino)pyrimidin-2-yl)amino)pyrrolidin-1-yl)methanone] | – | – | –
21 | > 100 | more than 2.5 fold | CCN1CCN(c2cc(Nc3cc(C)[nH]n3)nc(N[C@H]3CCN(S(=O)(=O)c4ccc(Cl)cc4F)C3)n2)CC1 [Compound 21, (S)-N^2-(1-((4-Chloro-2-fluorophenyl)sulfonyl)pyrrolidin-3-yl)-6-(4-ethylpiperazin-1-yl)-N^4-(5-methyl-1H-pyrazol-3-yl)pyrimidine-2,4-diamine] | – | – | –
